The values below come from patent US4435393A, “Derivatives of 10-(1-azabicyclo[2.2.2]oct-3-yl)-N,N dimethyl-10H-phenothiazine-2-sulfonamide as medicaments” (Pharmindustrie, priority 1981, dated 1984).

This assay deals with gastric hypersecretion stimulated by pentagastrine. As to the kind of experiment: antisecretory activity on gastric hypersecretion stimulated by pentagastrine in dogs wearing a Heidenhain pouch. In kind it is in vivo, dog (mongrel). The conditions noted are these: for ED50: Canis lupus familiaris, read-out: ED 50 (dose which reduced by 50% the hourly acid flow). The protocol: Three mongrel dogs wearing Heidenhain pouches and which were kept without food for 18 hours received a venous perfusion of […] of pentagastrine per hour in a volume of 30 mls per hour for 4 hours. The secretion from the pouch was collected in a flask which was changed every 15 minutes. An hour and a half after the beginning of the perfusion process, the product to be examined was administered orally in a No. 000 gelatin coated pill. […] The doses are expressed in the product in the base form.

The mark [1] stands for this setting: oral, Heidenhain pouch dogs, pentagastrine perfusion, acid flow at 3rd or 4th hour vs second hour, doses expressed as base.

Where two headings read alike, the source gives them in different places.

Take `CN(C)S(=O)(=O)c1ccc2c(c1)N(C1CN3CCC1CC3)c1ccccc1S2(=O)=O` (stereo not drawn) [Example 3, 10-(1-azabicyclo[2.2.2]oct-3-yl)-N,N dimethyl-10H-phenothiazine-2 sulfonamide S-dioxide]: the ED50 under setting [1] amounted to 10 mg/kg.

`CN(C)S(=O)(=O)c1ccc2c(c1)N(C1CN3CCC1CC3)c1ccccc1[S+]2[O-]` (stereo not drawn) [Example 1, 10-(1-azabicyclo[2.2.2]oct-3-yl)-N,N dimethyl-10H-phenothiaxine-2-sulfonamide S-oxide]: the ED50 under setting [1] stood at 2.3 mg/kg. Where the note is “oral, Heidenhain pouch dogs”, the “inhibition of gastric secretion relative to Cimetidine” value was “as active as Cimetidine”.

As to `CN/C(=N/CCSCc1nc[nH]c1C)NC#N` [Cimetidine, reference compound], the ED50 (po) was 2.3 mg/kg.

On to `CN(C)S(=O)(=O)c1ccc2c(c1)N(C1CN3CCC1CC3)c1ccccc1[S+]2[O-]` (single isomer, unassigned) [Example 2, 10-(1-azabicyclo[2.2.2]oct-3-yl)-N,N dimethyl-10H-phenothiazine-2-sulfonamide S-oxide], for which the ED50 under setting [1] came out at 2.5 mg/kg. Also, the “inhibition of gastric secretion relative to Cimetidine” value (oral, Heidenhain pouch dogs) is recorded as “as active as Cimetidine”.
